What all share (assay type): cell-based
The subject of assay [1] is HRV16. The assay is described as follows: HRV16 HeLa EC50 (cytopathic effect in H1-HeLa cells). In a few lines:
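Read-out is luminescent cell viability (CellTiter-Glo) after 96 h of infection at 33 °C, scaled between uninfected and infected-untreated wells. Before infection with titrated virus, compounds went onto H1-HeLa cells as triplicate 3-fold dilution series.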
(Damage to the host cells serves as the signal in cytopathic effect assays.)

The test system of assay [2] is RSV A2. Kind of assay: RSV NHBE EC50 (RSV A2 antiviral assay in NHBE cells). The conditions noted are these: Table 3, NHBE cells, RSV A2, 4 days, read-out: RSV NHBE EC50. The method, boiled down:
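Luminescent ATP-based viability was recorded in RSV A2-infected normal human bronchial epithelial cells exposed to serially diluted compound (3-fold steps, 0.05% DMSO). Infection used 1×10^4.5 TCID/mL, with a 4-day incubation at 37° C.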

In assay [3] the test system is DENV2 replicon. Kind of assay: DENV-2 Huh-7 Rep EC50 (replicon luminescence). The method, boiled down:
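EC50 derived from luminescence dose-response, normalised to DMSO-only 0% inhibition wells, after 1.5 h with EnduRen substrate. Compounds were first exposed for 48 h at 37° C to DENV2 replicon Huh-7 cells (5,000/well).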

For assay [4], the system named is RSV strain A2. Kind of assay: microbe, parasite or virus in culture. The conditions noted are these: Table 3, HEp-2 cells, RSV A2, 4 days, read-out: RSV HEp-2 EC50. In a few lines: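 Cytopathic-effect protection assay: HEp-2 cells (50,000/mL) infected with pre-titered RSV A2 onto 3-fold serial compound dilutions, incubated 4 days at 37° C. Cell viability read by CellTiter-Glo luminescence; percent inhibition derived against 0% and 100% virus-inhibition controls.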

The mark [5] stands for this setting: Table 3; H1-HeLa cells, 96 h; read-out: HRV16 HeLa EC50.
Where [6] appears, read: Table 3, Huh-7 DENV2 replicon cells, 48 hours, read-out: DENV-2 REP Huh7 EC50.
The mark [7] stands for this setting: 96 h, Table 3; H1-HeLa cells, 96 h; read-out: HRV16 HeLa EC50.
[8] abbreviates: human respiratory syncytial virus, NHBE, 96 h.
Setting [9] is: Dengue virus, DENV2, Huh-7, 48 h, read-out: DENV-2 REP Huh7 EC50.
[10] abbreviates: human respiratory syncytial virus, HEp-2, 96 h.
The mark [11] stands for this setting: Dengue virus, DENV2, Huh-7, 48 h, read-out: DENV-2 REP Huh7 EC50, Table 3, Huh-7 DENV2 replicon cells, 48 hours.

Where two headings read alike, the source gives them in different places. Where only a bound is given, the exact number is not on record here.

As usually defined, the EC50 is the midpoint of the concentration-response curve. Consider `CCCCC(=O)O[C@H]1[C@H](c2ccc3c(N)ncnn23)O[C@](C#N)(COP(=O)(N[C@@H](C)C(=O)OCC)N[C@@H](C)C(=O)OCC)[C@H]1OC(=O)CCCC` [Example 211, (2R,3S,4S,5S)-5-(4-Aminopyrrolo[2,1-f][1,2,4]triazin-7-yl)-2-(((bis(((S)-1-ethoxy-1-oxopropan-2-yl)amino)phosphoryl)oxy)methyl)-2-cyanotetrahydrofuran-3,4-diyl dipentanoate], for which the EC50 turned out to be 1970 nM in assay [1] (setting [5]); 946 nM in assay [2]; 28900 nM in assay [3] (read-out: DENV-2 REP Huh7 EC50, Table 3, Huh-7 DENV2 replicon cells, 48 hours); 653 nM in assay [4].
Turning to `CC(C)C(=O)O[C@H]1[C@H](c2ccc3c(/N=C/N(C)C)ncnn23)O[C@](C#N)(COP(=O)(N[C@@H](C)C(=O)OC2CCOCC2)Oc2ccccc2)[C@H]1OC(=O)C(C)C` (stereo partly drawn) [Example 218, (2R,3S,4S,5S)-2-cyano-5-(4-(((E)-(dimethylamino)methylene)amino)pyrrolo[2,1-f][1,2,4]triazin-7-yl)-2-((((((S)-1-oxo-1-((tetrahydro-2H-pyran-4-yl)oxy)propan-2-yl)amino)(phenoxy)phosphoryl)oxy)methyl) tetrahydrofuran-3,4-diyl bis(2-methylpropanoate)], the EC50 in assay [1] (setting [5]) amounted to 112 nM; in assay [2], 17 nM; in assay [3] (setting [6]), 5510 nM; in assay [4], 30 nM.
The corresponding values for `CC(=O)O[C@H]1[C@H](c2ccc3c(N)ncnn23)O[C@](C#N)(CO[P@@](=O)(N[C@@H](C)C(=O)OCC2CCN(CC(F)(F)F)CC2)Oc2ccccc2)[C@H]1OC(C)=O` [Example 119] are 1050 nM, 27 nM, 71400 nM and 541 nM.
Take `C[C@H](NP(=O)(OC[C@@]1(C#N)O[C@@H](c2ccc3c(N)ncnn23)[C@H](OC(=O)C(C)(C)C)[C@@H]1OC(=O)C(C)(C)C)Oc1ccccc1)C(=O)OC1COC1` (stereo partly drawn) [Example 206, (2R,3S,4S,5S)-5-(4-aminopyrrolo[2,1-f][1,2,4]triazin-7-yl)-2-cyano-2-((((((S)-1-(oxetan-3-yloxy)-1-oxopropan-2-yl)amino)(phenoxy)phosphoryl)oxy)methyl) tetrahydrofuran-3,4-diyl bis(2,2-dimethylpropanoate)]: the EC50 in assay [1] (setting [7]) stood at 308 nM; in assay [2] (setting [8]) it was 36 nM; in assay [3] (setting [9]) it was 7590 nM; in assay [4] (setting [10]) it was 338 nM.
For `CC(C)OC(=O)[C@H](C)N[P@](=O)(OC[C@@]1(C#N)O[C@@H](c2ccc3c(NC(=O)C(C)C)ncnn23)[C@H](OC(=O)C(C)C)[C@@H]1OC(=O)C(C)C)Oc1ccccc1` [Example 106], the EC50 in assay [1] (setting [7]) was determined as 805 nM; in assay [2] (setting [8]) it was 15 nM; in assay [3] (setting [9]), 14600 nM; in assay [4] (setting [10]), 173 nM.
With `COC(=O)[C@H](C)NP(=O)(N[C@@H](C)C(=O)OC)OC[C@@]1(C#N)O[C@@H](c2ccc3c(N)ncnn23)[C@H](OC(C)=O)[C@@H]1OC(C)=O` [Example 127], the EC50 was > 50000 nM in assay [1] (setting [7]), 3360 nM in assay [2] (setting [8]), > 50000 nM in assay [3] (setting [11]) and 8060 nM in assay [4] (setting [10]).
Turning to `COC(=O)[C@H](C)NP(=O)(N[C@@H](C)C(=O)OC)OC[C@@]1(C#N)O[C@@H](c2ccc3c(NC(=O)C(C)C)ncnn23)[C@H](OC(=O)C(C)C)[C@@H]1OC(=O)C(C)C` [Example 150, ((2R,3S,4R,5S)-5-(4-isobutyramidopyrrolo[2,1-f][1,2,4]triazin-7-yl)-2-cyano-3,4-diisobutylatetetrahydrofuran-2-yl)methyl bis-methyl L-alaninate phosphate], the EC50 in assay [1] (setting [7]) was 3480 nM; in assay [2] (setting [8]) it was 70 nM; in assay [3] (setting [11]), > 50000 nM; in assay [4] (setting [10]) it was 1400 nM.
Take `CCC(=O)O[C@H]1[C@H](c2ccc3c(N)ncnn23)O[C@](C#N)(CO[P@](=O)(N[C@@H](C)C(=O)OC)Oc2ccccc2)[C@H]1OC(=O)CC` (single isomer, unassigned) [Example 142]: the EC50 in assay [1] (setting [7]) was 352 nM; in assay [2] (setting [8]), 16 nM; in assay [3] (setting [9]), 11100 nM; in assay [4] (setting [10]), 93 nM.
Turning to `CCC(CC)COC(=O)[C@H](C)NP(=O)(N[C@@H](C)C(=O)OCC(CC)CC)OC[C@@]1(C#N)O[C@@H](c2ccc3c(N)ncnn23)[C@H](OC(C)=O)[C@@H]1OC(C)=O` [Example 114, (2R,3S,4S,5S)-5-(4-Aminopyrrolo[2,1-f][1,2,4]triazin-7-yl)-2-cyano-2-((((((S)-1-(2-ethylbutoxy)-1-oxopropan-2-yl)amino)(((2S)-1-(2-ethylbutoxy)-1-oxopropan-2-yl)amino)phosphoryl)oxy)methyl)tetrahydrofuran-3,4-diyl diacetate], the EC50 in assay [1] (setting [7]) was 3850 nM; in assay [2] (setting [8]) it was 201 nM; in assay [3] (setting [11]) it was 26300 nM; in assay [4] (setting [10]), 1660 nM.
For `CCCC(=O)O[C@H]1[C@H](c2ccc3c(N)ncnn23)O[C@](C#N)(COP(=O)(N[C@@H](C)C(=O)OC)N[C@@H](C)C(=O)OC)[C@H]1OC(=O)CCC` [Example 212, (2R,3S,4S,5S)-5-(4-Aminopyrrolo[2,1-f][1,2,4]triazin-7-yl)-2-(((bis(((S)-1-methoxy-1-oxopropan-2-yl)amino)phosphoryl)oxy)methyl)-2-cyanotetrahydrofuran-3,4-diyl dibutyrate] the same measures were 6120 nM, 451 nM, > 71400 nM and 1180 nM.
For `CCC(=O)O[C@H]1[C@H](c2ccc3c(N)ncnn23)O[C@](C#N)(COP(=O)(N[C@@H](C)C(=O)OC(C)C)N[C@@H](C)C(=O)OC(C)C)[C@H]1OC(=O)CC` [Example 123, ((2R,3S,4R,5S)-5-(4-aminopyrrolo[2,1-f][1,2,4]triazin-7-yl)-2-cyano-3,4-dipropionatetetrahydrofuran-2-yl)methyl bis-isopropyl L-alaninate phosphate] the same measures were 7570 nM, 175 nM, > 50000 nM and 2280 nM.
Turning to `CC(=O)O[C@H]1[C@H](c2ccc3c(N)ncnn23)O[C@](C#N)(CO[P@@](=O)(N[C@@H](C)C(=O)OC(C)C)Oc2ccccc2)[C@H]1OC(C)=O` [Example 89, (2R,3S,4S,5S)-5-(4-Aminopyrrolo[2,1-f][1,2,4]triazin-7-yl)-2-cyano-2-((((S)-(((S)-1-isopropoxy-1-oxopropan-2-yl)amino)(phenoxy)phosphoryl)oxy)methyl) tetrahydrofuran-3,4-diyl diacetate], the EC50 in assay [1] (setting [7]) is 785 nM; in assay [2] (setting [8]), 126 nM; in assay [3] (setting [9]), 49700 nM; in assay [4] (setting [10]), 195 nM.
On to `CC(C)C(=O)O[C@H]1[C@H](c2ccc3c(N)ncnn23)O[C@](C#N)(COP(=O)(N[C@@H](C)C(=O)O[C@H]2CC[C@H](N)CC2)Oc2ccccc2)[C@H]1OC(=O)C(C)C` (stereo partly drawn) [Example 136, (2R,3S,4S,5S)-2-((((((S)-1-(((1r,4S)-4-aminocyclohexyl)oxy)-1-oxopropan-2-yl)amino)(phenoxy)phosphoryl)oxy)methyl)-5-(4-aminopyrrolo[2,1-f][1,2,4]triazin-7-yl)-2-cyanotetrahydrofuran-3,4-diyl bis(2-methylpropanoate)], for which the EC50 worked out at 15000 nM in assay [1] (setting [7]), 244 nM in assay [2] (setting [8]), 38200 nM in assay [3] (setting [9]) and 2950 nM in assay [4] (setting [10]).

Source of the values: US12264173B2 (GILEAD SCIENCES, INC., priority 2020, dated 2025).
